Laboratory results: patent publication US20240181081A1, “Compositions and Methods for Treatment of Myotonic Dystrophy Type 1 with CRISPR/SACAS9” (Vertex Pharmaceuticals Incorporated, priority 2021, published 2024)

Key:
[1] = tested on: CUG RNA foci in primary DM1 patient myoblasts; test: DOUBLE-cut screening: FISH staining of RNA foci in primary DM1 patient myoblasts; type: cell-based, human; details: sgRNA pair RNP, 72 hrs post nucleofection; for % of CUG foci free nuclei (DNA-PKi): 3 μM Compound 6 for 48 hrs; for % of CUG foci free nuclei (Vehicle): DMSO 48 hrs
Method in brief: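 Primary DM1 patient myoblasts nucleofected with paired upstream/downstream sgRNA–SaCas9 RNPs (20 pmol protein, 60 pmol sgRNA each), then treated 48 hrs with DMSO or 3 μM DNA-PK inhibitor. At 72 hrs post nucleofection, CUG foci stained by Cy3-PNA(CAG)5 FISH with MBNL1 co-staining and quantified by high-content confocal imaging.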

[2] = tested on: CTG repeat expansion in the 3′ UTR of human DMPK gene; test: DOUBLE-cut screening: CTG repeat excision by loss-of-signal ddPCR in primary DM1 patient myoblasts; type: cell-based; details: sgRNA pair RNP, mean of upstream and downstream ddPCR assays; for % of CTG repeat excision efficiency by ddPCR (DNA-PKi): 3 μM Compound 6 for 48 hrs; for % of CTG repeat excision efficiency by ddPCR (Vehicle): DMSO 48 hrs
Method in brief: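 Paired upstream/downstream sgRNAs, each as RNP with recombinant SaCas9 (20 pmol protein:60 pmol sgRNA), mixed 1:1 and nucleofected into primary DM1 myoblasts; cells then given DMSO or 3 μM DNA-PKi Compound 6 for 48 hrs. Genomic DNA taken 72 hrs post-nucleofection; excision is mean of upstream and downstream loss-of-signal ddPCR, normalized to DMPK exon 1 reference.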

| Substance | % of CUG foci free nuclei (DNA-PKi) [1] | % of CUG foci free nuclei (Vehicle) [1] | % of CTG repeat excision efficiency by ddPCR (DNA-PKi) [2] | % of CTG repeat excision efficiency by ddPCR (Vehicle) [2] |
| --- | --- | --- | --- | --- |
| SaU7 + SaD12: SaCas9 sgRNA pair, SEQ ID NOs: 7 and 20 (guide 1 CGCGGCCGGCGAACGGGGCTCG; guide 2 TCAGTGCATCCAAAACGTGGAT; listed as DNA, chemistry not fully specified) | 86.06% | 66.41% | 62.84% | 39.71% |
| SaU7 + SaD15: SaCas9 sgRNA pair, SEQ ID NOs: 7 and 23 (guide 1 CGCGGCCGGCGAACGGGGCTCG; guide 2 GACAATAAATACCGAGGAATGT; listed as DNA, chemistry not fully specified) | 89.69% | 64.62% | 66.66% | 36.65% |
| SaU7 + SaD17: SaCas9 sgRNA pair, SEQ ID NOs: 7 and 25 (guide 1 CGCGGCCGGCGAACGGGGCTCG; guide 2 TTTATTCGCGAGGGTCGGGGGT; listed as DNA, chemistry not fully specified) | 75.53% | 36.12% | 55.97% | 27.41% |
| SaU7 + SaD18: SaCas9 sgRNA pair, SEQ ID NOs: 7 and 26 (guide 1 CGCGGCCGGCGAACGGGGCTCG; guide 2 GGGCCTTTTATTCGCGAGGGTC; listed as DNA, chemistry not fully specified) | 73.07% | 23.22% | 48.08% | 19.71% |
| SaU7 + SaD19: SaCas9 sgRNA pair, SEQ ID NOs: 7 and 27 (guide 1 CGCGGCCGGCGAACGGGGCTCG; guide 2 AGGACCCCCACCCCCGACCCTC; listed as DNA, chemistry not fully specified) | 81.47% | 42.75% | 56.22% | 28.45% |
| SaU7 +SaD3: SaCas9 sgRNA pair, SEQ ID NOs: 7 and 11 (guide 1 CGCGGCCGGCGAACGGGGCTCG; guide 2 CAACGATAGGTGGGGGTGCGTG; listed as DNA, chemistry not fully specified) | 80.45% | 39.24% | 61.82% | 41.26% |
| SaU7 +SaD11: SaCas9 sgRNA pair, SEQ ID NOs: 7 and 19 (guide 1 CGCGGCCGGCGAACGGGGCTCG; guide 2 CAAAACGTGGATTGGGGTTGTT; listed as DNA, chemistry not fully specified) | 73.38% | 36.96% | 51.90% | 25.10% |
| SaU7 +SaD13: SaCas9 sgRNA pair, SEQ ID NOs: 7 and 21 (guide 1 CGCGGCCGGCGAACGGGGCTCG; guide 2 CCCAACAACCCCAATCCACGTT; listed as DNA, chemistry not fully specified) | 78.52% | 28.69% | 55.97% | 25.62% |
| SaU7 +SaD20: SaCas9 sgRNA pair, SEQ ID NOs: 7 and 28 (guide 1 CGCGGCCGGCGAACGGGGCTCG; guide 2 AGATGGAGGGCCTTTTATTCGC; listed as DNA, chemistry not fully specified) | 83.24% | 63.33% | 67.93% | 39.72% |
| SaU8 + SaD5: SaCas9 sgRNA pair, SEQ ID NOs: 8 and 13 (guide 1 GGCTCGAAGGGTCCTTGTAGCC; guide 2 GGGTTTGGCAAAAGCAAATTTC; listed as DNA, chemistry not fully specified) | 84.28% | 72.77% | 58.77% | 49.47% |
| SaU8 + SaD6: SaCas9 sgRNA pair, SEQ ID NOs: 8 and 14 (guide 1 GGCTCGAAGGGTCCTTGTAGCC; guide 2 CTTTTGCCAAACCCGCTTTTTC; listed as DNA, chemistry not fully specified) | 65.28% | 32.43% | 40.19% | 23.57% |
| SaU8 + SaD7: SaCas9 sgRNA pair, SEQ ID NOs: 8 and 15 (guide 1 GGCTCGAAGGGTCCTTGTAGCC; guide 2 GGGGCGCGGGATCCCCGAAAAA; listed as DNA, chemistry not fully specified) | 82.90% | 52.92% | 53.42% | 38.19% |
| SaU8 + SaD12: SaCas9 sgRNA pair, SEQ ID NOs: 8 and 20 (guide 1 GGCTCGAAGGGTCCTTGTAGCC; guide 2 TCAGTGCATCCAAAACGTGGAT; listed as DNA, chemistry not fully specified) | 85.37% | 76.92% | 55.46% | 36.64% |
| SaU8 + SaD15: SaCas9 sgRNA pair, SEQ ID NOs: 8 and 23 (guide 1 GGCTCGAAGGGTCCTTGTAGCC; guide 2 GACAATAAATACCGAGGAATGT; listed as DNA, chemistry not fully specified) | 86.21% | 76.50% | 57.24% | 39.47% |
| SaU8 + SaD17: SaCas9 sgRNA pair, SEQ ID NOs: 8 and 25 (guide 1 GGCTCGAAGGGTCCTTGTAGCC; guide 2 TTTATTCGCGAGGGTCGGGGGT; listed as DNA, chemistry not fully specified) | 79.35% | 52.34% | 49.09% | 30.50% |
| SaU8 + SaD18: SaCas9 sgRNA pair, SEQ ID NOs: 8 and 26 (guide 1 GGCTCGAAGGGTCCTTGTAGCC; guide 2 GGGCCTTTTATTCGCGAGGGTC; listed as DNA, chemistry not fully specified) | 70.76% | 36.66% | 44.51% | 18.17% |
| SaU8 + SaD19: SaCas9 sgRNA pair, SEQ ID NOs: 8 and 27 (guide 1 GGCTCGAAGGGTCCTTGTAGCC; guide 2 AGGACCCCCACCCCCGACCCTC; listed as DNA, chemistry not fully specified) | 83.45% | 61.41% | 46.04% | 28.95% |
| SaU8 +SaD3: SaCas9 sgRNA pair, SEQ ID NOs: 8 and 11 (guide 1 GGCTCGAAGGGTCCTTGTAGCC; guide 2 CAACGATAGGTGGGGGTGCGTG; listed as DNA, chemistry not fully specified) | 82.41% | 57.67% | 59.28% | 48.19% |
| SaU8 +SaD10: SaCas9 sgRNA pair, SEQ ID NOs: 8 and 18 (guide 1 GGCTCGAAGGGTCCTTGTAGCC; guide 2 TTGGGGGTCCTGTAGCCTGTCA; listed as DNA, chemistry not fully specified) | 82.92% | 74.46% | 69.07% | 48.45% |
| SaU8 +SaD11: SaCas9 sgRNA pair, SEQ ID NOs: 8 and 19 (guide 1 GGCTCGAAGGGTCCTTGTAGCC; guide 2 CAAAACGTGGATTGGGGTTGTT; listed as DNA, chemistry not fully specified) | 70.97% | 44.65% | 47.57% | 31.52% |
| SaU8 +SaD13: SaCas9 sgRNA pair, SEQ ID NOs: 8 and 21 (guide 1 GGCTCGAAGGGTCCTTGTAGCC; guide 2 CCCAACAACCCCAATCCACGTT; listed as DNA, chemistry not fully specified) | 77.05% | 43.66% | 51.64% | 29.46% |
